Measured values as given in patent publication US20260124170A1, “PHARMACEUTICAL COMPOSITION COMPRISING METABOLITE OF ENAVOGLIFLOZIN, AND USE THEREOF” (DAEWOONG PHARMACEUTICAL CO., LTD., priority 2022, published 2026).

Key:
[1] = test system: STZ-induced type 1 diabetic rats; test: Oral glucose tolerance test in type 1 diabetic rat model; type: in vivo; conditions: STZ rats, 1 mg/kg, glucose 2 g/kg oral
Experimental: (§1) STZ was administered to Sprague Dawley (SD) male 5-week-old rats on day 0 (G2 to G7, excluding G1), and non-fasting blood glucose levels were measured on day 3 to determine whether type 1 diabetes was induced. On day 7, the experimental substances were administered to each group, and blood and urine samples were collected at 6 h, 24 h, 48 h, and 72 h to measure non-fasting blood glucose levels. On day 14 of the experiment, the experimental animals were fasted for 16 h, and on day 15, 2 g/kg of glucose solution was orally administered after the experimental substances were administered. Thereafter, blood glucose levels were measured at 15, 30, 60, 90, and 120 minutes after glucose administration. After blood collection, the serum was separated, and the IL-6 inflammatory response was evaluated using an interleukin-6 (IL-6) enzyme-linked immunosorbent assay (ELISA) kit.

[2] = test system: interleukin-6 (IL-6); test: Serum IL-6 ELISA in type 1 diabetic rat model; type: in vivo; conditions: STZ rats, 6, 24, 48, 72 hours after administration
Experimental: as §1

[3] = biological target: T1, SGLT2 (Homo sapiens, UniProt P31639); test: Inhibition of [14C]AMG uptake in SGLT2-overexpressing CHO cells; type: cell-based; conditions: CHO-SGLT2 cells, 10 μM [14C]AMG, 2 h, 37° C.
T1 construct: expressed in transfected cells
T1 sequence (P31639 1-672): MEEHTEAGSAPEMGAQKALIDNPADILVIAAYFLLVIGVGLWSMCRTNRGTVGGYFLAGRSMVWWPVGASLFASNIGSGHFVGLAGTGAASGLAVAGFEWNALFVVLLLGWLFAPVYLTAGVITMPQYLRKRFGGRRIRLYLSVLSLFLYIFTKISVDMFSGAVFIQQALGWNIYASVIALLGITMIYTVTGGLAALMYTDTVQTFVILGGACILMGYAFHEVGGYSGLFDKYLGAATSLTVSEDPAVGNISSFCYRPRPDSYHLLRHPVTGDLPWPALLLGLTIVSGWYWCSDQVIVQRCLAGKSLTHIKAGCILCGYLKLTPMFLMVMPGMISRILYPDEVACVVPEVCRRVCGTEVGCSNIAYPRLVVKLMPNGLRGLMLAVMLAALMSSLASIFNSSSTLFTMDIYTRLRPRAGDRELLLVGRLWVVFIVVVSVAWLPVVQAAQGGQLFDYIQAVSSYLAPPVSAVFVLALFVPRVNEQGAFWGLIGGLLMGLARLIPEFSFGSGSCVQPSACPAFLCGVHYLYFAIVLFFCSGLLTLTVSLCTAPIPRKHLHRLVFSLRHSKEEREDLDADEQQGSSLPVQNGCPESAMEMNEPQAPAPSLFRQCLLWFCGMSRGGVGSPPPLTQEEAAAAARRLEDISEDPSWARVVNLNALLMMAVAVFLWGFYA
Experimental: The evaluation was performed in the same manner as the evaluation of SGLT1 inhibition, except that an SGLT2-overexpressing cell line (CHO-SGLT2 stable cells) was used, and the inhibitory evaluation substances described below were used.

[4] = biological target: T2, SGLT1 (Homo sapiens, UniProt P13866); test: Change in SGLT1 inhibition according to drug pretreatment time (CHO-SGLT1); type: cell-based; conditions: pretreatment 0, 1, 2 h; one-way ANOVA
T2 construct: expressed in transfected cells
T2 sequence (P13866 1-664): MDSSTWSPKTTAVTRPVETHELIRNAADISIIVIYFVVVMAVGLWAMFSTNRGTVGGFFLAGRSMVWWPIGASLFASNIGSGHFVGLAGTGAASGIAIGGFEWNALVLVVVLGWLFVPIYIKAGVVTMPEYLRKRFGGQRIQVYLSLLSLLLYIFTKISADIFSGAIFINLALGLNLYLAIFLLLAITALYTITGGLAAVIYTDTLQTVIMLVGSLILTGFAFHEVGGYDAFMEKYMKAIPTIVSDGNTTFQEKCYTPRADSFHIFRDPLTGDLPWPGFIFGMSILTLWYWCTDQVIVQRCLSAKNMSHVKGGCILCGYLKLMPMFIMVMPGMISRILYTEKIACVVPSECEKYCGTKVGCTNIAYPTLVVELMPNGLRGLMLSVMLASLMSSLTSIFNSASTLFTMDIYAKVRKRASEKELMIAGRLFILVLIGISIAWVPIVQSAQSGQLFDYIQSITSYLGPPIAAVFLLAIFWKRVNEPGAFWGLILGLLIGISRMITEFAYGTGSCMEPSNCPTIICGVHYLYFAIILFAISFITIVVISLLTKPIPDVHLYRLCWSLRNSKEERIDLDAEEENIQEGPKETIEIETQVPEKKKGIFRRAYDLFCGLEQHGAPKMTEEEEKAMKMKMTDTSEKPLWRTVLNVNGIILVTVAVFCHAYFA
Description: (§2) All data values are expressed as the mean±SD of […].

[5] = biological target: T2, SGLT1; test: SGLT1 inhibition with varied substrate AMG concentration (Dixon / L-B plot); type: cell-based; conditions: CHO-SGLT1, varied AMG concentration
Experimental: (§3) From these, the inhibition mechanism was confirmed, and the inhibition constant was calculated.

[6] = biological target: T1, SGLT2; test: Change in SGLT2 inhibition according to drug pretreatment time (CHO-SGLT2); type: cell-based; conditions: for IC50: CHO-SGLT2
Description: as §2

[7] = biological target: T1, SGLT2; test: SGLT2 inhibition with varied substrate AMG concentration (Dixon / L-B plot); type: cell-based
Experimental: as §3

SMILES	Blood glucose level in OGTT [1]	Change in IL-6 level [2]	IC50 [3] [nM]	Change in SGLT1 inhibition as exposure time increased [4]	Inhibition mechanism, SGLT1 [5]	IC50 ([6]; IC50 according to pretreatment time (nM), SGLT2, 1 h, 1 h pretreatment in sodium-free buffer) [nM]	IC50 ([6]; IC50 according to pretreatment time (nM), SGLT2, 2 h, 2 h pretreatment in sodium-free buffer) [nM]	IC50 ([6]; no pretreatment, read-out: IC50 according to pretreatment time (nM), SGLT2, 0 h) [nM]	Change in SGLT2 inhibition as exposure time increased ([6]; pretreatment 0, 1, 2 h, one-way ANOVA)	Inhibition mechanism, SGLT2 ([7]; CHO-SGLT2, varied AMG concentration)	Ki ([7]; from slope of L-B plot, CHO-SGLT2) [nM]
CCOc1ccc(Cc2cc([C@@H]3O[C@H](SC)[C@@H](O)[C@H](O)[C@H]3O)ccc2Cl)cc1 [Sotagliflozin]	lowering of the blood glucose level was observed	slight decrease	–	–	–	–	–	–	–	–	–
OC[C@H]1O[C@@H](c2ccc(Cl)c(Cc3ccc(O[C@H]4CCOC4)cc3)c2)[C@H](O)[C@@H](O)[C@@H]1O [Empagliflozin]	–	–	6.65 ± 2.92	did not show any significant change or increase in inhibition	Competitive inhibition	6.67 ± 1.29	7.35 ± 0.82	7.2 ± 2.33	did not increase or significantly change	Competitive inhibition	5.15
